Assay results taken from patent US20090181910A1, “METHOD OF PREVENTION AND ALLEVIATION OF TOXICITY BY MODULATION OF IRF3” (priority 2006, published 2009).

Columns and labels:
Hes1 = experiment: BMM Q-PCR: Hes1 mRNA; format: cell-based, Murine; conditions: FIG. 9b
RXRα [1] = experiment: RAW264.7 cells with siHes1, Q-PCR: RXRα mRNA; format: cell-based, murine; conditions: siRNA specific to Hes1, polyI:C 1 μg/ml 8 hours; FIG. 9d
UGT1A6 = tested on: UGT1A6; design: species or system mice; conditions: mouse, in vivo
ZF5 = experiment: BMM Q-PCR: ZF5 mRNA; format: cell-based, Murine; conditions: polyI:C and LPS; data not shown
ZNF202 = experiment: BMM Q-PCR: ZNF202 mRNA; format: cell-based, Murine; conditions: polyI:C and LPS; data not shown
CYP3A4 = experiment: Huh7 Q-PCR: CYP3A4
RXRα [2] = experiment: BMM anti-RXRα Western blot; format: cell-based, Murine; conditions: polyI:C and LG268 treatment, 24 hrs; FIG. 8e
Cyp3A11 [3] = experiment: Liver RNA Q-PCR, polyI:C/APAP-treated mice: Cyp3A11; conditions: polyI:C 100 μg i.v.; FIG. 1C
Cyp1A2 = experiment: Liver RNA Q-PCR, polyI:C/APAP-treated mice: Cyp1A2; conditions: polyI:C 100 μg i.v.; FIG. 1B
[4] = Serum ALT in APAP hepatotoxicity
CYP24 = tested on: CYP24; design: species or system mice; conditions: mouse, in vivo
RXRα [5] = format: cell-based, Murine
Cyp3A11 [6] = conditions: mouse, in vivo
RXRα [7] = experiment: Liver RNA Q-PCR, polyI:C/APAP-treated mice: RXRα; format: in vivo; conditions: single polyI:C 100 μg i.v. 24 h before APAP 350 mg/kg i.p.; wildtype vs IRF3−/− mice; FIG. 1A
Experimental: FIG. 1: PolyI:C repression of RXRα and cytochrome P450 family members involves IRF3. Wildtype or IRF3−/− mice (n=4) fasted and were treated with 0.1% NaCl or polyI:C (100 μg) intravenous (i.v.) 24 hours prior to treatment with APAP (350 mg/kg) by intraperitoneal (i.p.) injection. 6 hours post-APAP treatment liver samples were isolated. Liver RNA analyzed by Q-PCR for (A) RXRα (B) Cyp1A2 and (C) Cyp3A11.
Age and sex matched 6-9 week old mice were used for all experiments. C57/B16 mice were obtained from Jackson Laboratory. IRF3^−/− mice were obtained from Dr. T. Taniguchi. For APAP hepatotoxicity analysis, mice fasted for […] and then administered Vehicle (0.1% NaCl) or APAP (175-600 mg/kg) by intraperitoneal injection (i.p.). For serum and histological studies, mice were sacrificed at 6-7 hours post injection and serum and liver samples were retrieved. For survival studies, mice were studied for up to 5 days. For polyI:C studies, mice were also treated with 0.1% NaCl or polyI:C (100 μg) intravenous (i.v.) 12-24 hours prior to APAP treatment. […] Serum alanine aminotransferase (ALT) levels were determined using manufacturer's protocol (TECO Diagnostics). […]
For quantitative realtime PCR (Q-PCR), total RNA was isolated and cDNA synthesized according to manufacturer's protocol: Trizol (RNA) and Bio-Rad iScript (cDNA). […]

[8] = H&E liver histology in APAP hepatotoxicity; conditions: for prevention of APAP-induced necrosis: FIG. 3A
[9] = tested on: hepatic LXR, FXR and PPARα target genes; format: cell-based, human
RXRα [10] = tested on: RXRα; design: species or system mice; conditions: mouse, in vivo
[11] = mouse, in vivo

In the case of “polyinosinic:polycytidylic acid [polyI:C]”, the “Hes1 mRNA” value (Hes1; LPS 10 ng/ml or polyI:C 1 μg/ml 4 hrs) is reported as “potently induced”, the “Hes1 induction in IRF3^−/− and IFNAR^−/− BMMs” value (Hes1; polyI:C 1 μg/ml 4 hrs) is reported as “involves IRF3, but not Type I IFNs” and the “polyI:C-mediated repression of RXRα with Hes1 knockdown” value (RXRα [1]) is reported as “requirement of Hes1 in polyI:C-mediated repression of RXRα”. The “IRF3 dependence of UGT1A6 repression” value (UGT1A6) was “dependent on IRF3”, the “effect on ASA or PCN induction of UGT1A6 mRNA” value (UGT1A6) was “diminished” and the “ZF5 mRNA levels” value (ZF5) was “unaffected”. For the same substance, the “ZNF202 mRNA levels” value (ZNF202) was “unaffected”, the “rifampicin induction of CYP3A4” value (CYP3A4; Huh7 cells with RXRα overexpression, FIG. 10e) was “no longer repressed CYP3A4” and the “rifampicin induction of CYP3A4” value (CYP3A4; Huh7 cells, rifampicin 25 μM, transfected polyI:C 2 μg/ml) was “capable of repressing rifampicin induction”. The “RXRα protein levels in IRF3^−/− BMMs” value (RXRα [2]) was “significantly higher than in WT or IFNAR^−/− BMMs”, the “basal Cyp3A11 mRNA level in liver” value (Cyp3A11 [3]) was “potently repressed” and the “basal Cyp1A2 mRNA level in liver” value (Cyp1A2) was “potently repressed”. For the same substance, the “prevention of ethanol-promoted APAP induction of serum ALT” value ([4]; 20% EtOH 5 days, polyI:C Day 3 and Day 5, APAP 175 mg/kg, FIG. 2C) was “effective at preventing ethanol from promoting APAP induction of serum ALT levels”, the “prevention of PCN/APAP induction of serum ALT” value ([4]; polyI:C 100 μg i.v. and PCN 75 mg/kg 24 h before APAP 175 mg/kg, FIG. 2B) was “capable of preventing PCN/APAP induction of serum ALT levels” and the “prevention of APAP-induced serum ALT increase” value ([4]; polyI:C 100 μg i.v. pretreatment, APAP 350 mg/kg, wildtype and IRF3-deficient mice, FIG. 2A) was “effectively prevented such increase in serum ALT only when IRF3 was present”. For the same substance, the “effect on induction of CYP24 mRNA by 1,25(OH)2D3” value (CYP24) was “blunted”, the “polyI:C-mediated inhibition of RXRα mRNA in knockout BMMs” value (RXRα [5]) was “defective in IRF3^−/− BMMs but not IFNAR^−/− BMMs” and the “RXRα mRNA repression, extended time course” value (RXRα [5]; 1, 4 or 8 hrs, FIG. 8b) was “more potent repressor of RXRα mRNA than LPS”. For the same substance, the “RXRα mRNA in BMMs” value (RXRα [5]; LPS 10 ng/ml or polyI:C 1 μg/ml, 4 hours, FIG. 8a) was “repressed RXRα mRNA”, the RXRα primary transcripts (RXRα [5]; polyI:C 4 or 8 hrs, exon-intron primers, FIG. 9a) was “strongly repressed” and the “RXRα mRNA stability” value (RXRα [5]; polyI:C 2 hours then Actinomycin D, FIG. 9a) was “No significant differences”. The “effect on ASA or PCN induction of CYP3A11 mRNA” value (Cyp3A11 [6]) was “diminished”, the “effect on induction of CYP3A11 by PCN” value (Cyp3A11 [6]) was “blunted the induction of CYP3A11 by PCN” and the “RXRα mRNA in liver” value (RXRα [7]) was “potent downregulation of RXRα mRNA in an IRF3 dependent manner”. The “prevention of cell necrosis” value ([8]; PCN or ethanol plus lower levels of APAP, FIG. 3B) was “prevents cell necrosis in these treatments as well”, the “prevention of APAP-induced necrosis” value ([8]; mice deficient in IRF3, APAP 350 mg/kg) was “only slightly reduced the severity of necrosis” and the “prevention of APAP-induced necrosis” value ([8]; wildtype mice, APAP 350 mg/kg) was “completely prevented such necrosis”. For the same substance, the “effect on LXR, FXR and PPARα-mediated induction of target genes” value [9] was “inhibited”, the “IRF3 dependence of repression of RXRα and hepatic nuclear receptor target genes” value (RXRα [10]) was “IRF3 was critical for the repression of RXRα and hepatic nuclear receptor target genes” and the “RXRα mRNA expression in liver” value (RXRα [10]; iv) was “significant reduction in RXRα mRNA expression”. For the same substance, the liver damage [11] was “strongly induced liver damage”.
